We go through one compound from patent publication US20110306623A1, “NOVEL COMPOUNDS COMPRISING A 3-(5-ALKOXYPYRIMIDIN-2-YL) PYRIMIDIN-4(3H)-ONE STRUCTURE AND DRUGS THAT COMPRISE SAME” (KOWA COMPANY, LTD., priority 2009, published 2011).

The test system of test [1] is angiotensin II-induced blood pressure increase. The test can be described thus: Inhibitory activity on angiotensin II-induced blood pressure increase. In kind it is in vivo. As to conditions: male SD rat, FIG. 1. Here is the method: Inhibitory Activity on Angiotensin II-Induced Blood Pressure Increase
The in vivo angiotensin II antagonist activity of the Compound a and the Compound B was evaluated by following, as an index, the blood pressure increase induced by intravenous injection of angiotensin II.
A male SD rat (10 to 12-week old) was anesthetized with pentobarbital, and a cannular for measuring blood pressure was inserted into the right femoral artery while a cannular for injecting angiotensin II was inserted into the right jugular vein, the cannulars were then fixed on the back side of the neck as exposed.
One day after the surgery, the rat was subjected to the test under unanaesthetized, unstrained, and unfasted condition. The artery cannular was connected to a blood pressure transducer, and the blood pressure and heart rate were continuously recorded on a polygraph with an aid of an amplifier. Once the blood pressure and heart rate are stabilized, angiotensin II (0.1 nmol/kg) was administered via the vein cannular. The angiotensin II was repeatedly administered until a stable hypertensive response is obtained. After that, the Compound a (1 mg/kg or 3 mg/kg) or the Compound B (3 mg/kg) was orally administered, and the hypertensive response induced by angiotensin II was observed over time until 24 hours after the administration. […]

In the next test the target is T1, human PPAR 2 (Homo sapiens, UniProt P37231).
T1 construct: the amino acids 182 to 505 of human PPAR 2; expressed in transfected cells; host or cells: COS7 cells
T1 sequence (P37231 182-505): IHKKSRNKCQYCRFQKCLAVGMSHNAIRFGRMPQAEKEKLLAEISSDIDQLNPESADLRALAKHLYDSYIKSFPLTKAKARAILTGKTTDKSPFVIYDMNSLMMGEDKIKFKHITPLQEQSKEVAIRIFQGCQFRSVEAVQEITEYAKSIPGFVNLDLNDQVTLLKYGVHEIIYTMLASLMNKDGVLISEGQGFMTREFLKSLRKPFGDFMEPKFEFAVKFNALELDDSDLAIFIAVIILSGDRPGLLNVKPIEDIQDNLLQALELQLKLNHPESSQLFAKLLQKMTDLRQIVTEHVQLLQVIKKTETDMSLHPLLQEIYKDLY
The test can be described thus: PPAR activating activity, Gal4-PPAR chimera luciferase transfection assay using COS7 cells. The class given is cell-based. The note with it: relative to Rosiglitazone. Here is the method:
PPAR Activating Activity The agonist activity of the Compound a and the Compound b on PPAR was measured based on the transfection assay using COS7 cells (DS Pharma Biomedical Co., Ltd., Osaka, Japan), which are the cell line derived from the kidney of the African green monkey. COS7 cells were cultured under 5% CO2 concentration, and DMEM medium containing 10% fetal bovine serum, glutamic acid, and antibiotics was used as a medium. As an expression vector, a chimera in which DNA binding domain of Gal4 which is a yeast transcription factor, and ligand binding domain of human PPAR 2 are fused, i.e., a fused product between the amino acids 1 to 147 of Gal4 transcription factor and the amino acids 182 to 505 of human PPAR 2, was used. Furthermore, as a reporter vector, a firefly luciferase containing five copies of Gal4 recognition sequence in the promoter region was used. Plasmid transfection of the cells was performed according to a method which uses jetPEI (trade name, manufactured by Funakoshi Co., Ltd., Tokyo, Japan). […] After that, the luciferase activity and -galactosidase activity in the cell lysis solution were measured. […] The percentage of the luciferase activity of the Compound a or the Compound b (1 to 30 mol/L) was calculated when the luciferase activity of Rosiglitazone (3 to 10 mol/L) is 100% and the luciferase activity in the absence of the Compound a or the Compound b is 0%. […]

SMILES strings stand for the structures.

Take `CCCCc1nc(C)n(-c2ncc(OC)cn2)c(=O)c1Cc1ccc(-c2ccccc2-c2noc(=O)[nH]2)cc1` [Compound b, 3-{4′-{[6-butyl-3-(5-methoxypyrimidin-2-yl)-2-methylpyrimidin-4(3H)-on-5-yl]methyl}biphenyl-2-yl}-1,2,4-oxadiazol-5(4H)-one]: the “effect of inhibiting the angiotensin II-induced blood pressure increase, compared with Compound a 3 mg/kg” value in test [1] (oral 3 mg/kg) is listed as “substantially the same degree as the administration of the Compound a with dosage of 3 mg/kg”. In addition, the “inhibitory action on angiotensin II-induced blood pressure increase, 24 hours after the administration” value in test [1] (oral, Compound a 1 or 3 mg/kg, Compound B 3 mg/kg, 24 hours after administration) is “its effect was almost completely lost 24 hours after the administration”. Further, the “percentage of the luciferase activity (Rosiglitazone = 100%, absence of compound = 0%)” value on human PPAR 2 turned out to be 24%.
